PMC8292346, “Dysfunction of the key ferroptosis-surveilling systems hypersensitizes mice to tubular necrosis during acute kidney injury” (Nature Communications, 2021)
Several values for one entry are separate records, joined by “and”; a condition that tells them apart may be missing. Identical values can stand only once. Like-named read-outs stand apart in the source and are kept apart here.

Columns and labels:
HT1080 cells [1] = assay: CellTiter-Glo luminescent cell viability assay (ATP), dose-response; assay type: cell-based, human
Protocol: Cells were plated in an opaque-walled 96-well plate and treatment with ferroptosis inducers and/or ferroptosis inhibitors was initiated 24 h later. […] Here, the reaction agent was directly added to the wells, mixed on an orbital shaker for 2 min, and then incubated at room temperature for 10 min. The luminescence was detected using a Promega GloMax® instrument.

CD10-135 cells = assay: FINs/ferroptocide, LDH release assay; assay type: cell-based, human; design: LDH release: unit not given here; details: Nec-1f 30 µM
NIH3T3 cells [2] = assay: Ferroptosis inducers (FINs)/ferroptocide, 7-AAD/annexin V flow cytometry; assay type: cell-based, murine; details: NIH3T3, 5 µM erastin 24 h, alone (DMSO) or with Fer-1 1 µM, Nec-1s 30 µM, Nec-1f 30 µM
[3] = system: Mouse cortical tubule cells (MCT); assay: FINs/ferroptocide, 7-AAD/annexin V flow cytometry; assay type: cell-based; details: MCT, alone (DMSO) or with Fer-1 1 µM, Nec-1s 30 µM, Nec-1f 30 µM
Protocol: (§1) To induce necroptosis in a human cell line, HT29 cells were stimulated at the indicated time points with 20 ng/ml human TNFα (Biolegend), 1 μM SMAC-mimetics (Birinapant, Chemietek), and 20 μM zVAD-fmk (Selleckchem, herein referred to as zVAD). For the induction of necroptosis in NIH3T3 cells, cells were incubated with 20 ng/ml TNF-α and 20 μM zVAD for indicated time points. […] Cells were seeded in six-well plates or petri dishes. […] After indicated time points, cells were collected and prepared for flow cytometry, immunoblotting, and/or LDH release assays.
(§2) Cells were harvested and the pellets were washed twice in PBS and stained with 5 μl of 7-AAD (BD Biosciences) and 5 μl of annexin-V-FITC (BD Biosciences) added to 100 μl annexin-V binding buffer (BD Biosciences). After 15 min, cells were recorded on the LSRII with the FACS Diva 6.1.1 software (BD Biosciences) and subsequently analyzed with the FlowJo v10 software (Tree Star).

HT1080 cells [4] = assay: Ferroptosis inducers (FINs)/ferroptocide, 7-AAD/annexin V flow cytometry; assay type: cell-based, human
[5] = system: primary murine tubular cells; assay: RSL3-induced LDH release of primary kidney tubular cells; assay type: cell-based; details: primary kidney tubular cells, RSL3 14 h, alone (DMSO) or with Fer-1 or Nec-1f 30 µM
Protocol: The LDH release of cells or of freshly isolated kidney tubules was measured according to manufacturers’ instructions at indicated time points. In brief, an aliquot of the supernatant was taken and Lysis Solution was added for 45 min to induce maximal LDH release before another aliquot of the supernatant was taken. Subsequently, the supernatants were incubated with CytoTox 96® Reagent for 15 min protected from light at room temperature before adding Stop Solution. Absorbance was measured at 490 nm.
Generation, cell culture, and induction of cell death in primary murine tubular cells. Murine tubular cells were generated by outgrowth from isolated renal tubules (see above). Primary murine tubules were placed in six-well plates containing Dulbecco’s Modified Eagle Medium F-12 Nutrient Mixture without phenol red (DMEM/F12, Thermo Fisher), supplemented with 0.01 mg/ml recombinant human insulin, 5.5 μg/ml human transferrin, 0.005 μg/ml Na2SeO3 (ITS without linoleic acid, Sigma Aldrich), 50 nM hydrocortisone, 100 U/ml penicillin, and 100 μg/ml streptomycin (Pen/Strep, Thermo Fisher). After two days, the outgrown primary murine tubular cells were washed with PBS and a fresh medium was added. When the number of primary murine tubular cells reached approximately 50% confluence, the cells were removed from the six-well plates using Trypsin-EDTA (Thermo Fisher), washed with medium and a Ficoll Paque Plus (Sigma Aldrich) gradient was performed to remove any dead cells, and debris from the murine renal tubules. Cells were washed twice with PBS and seeded in six-well plates with medium. Once the number of grown cells reached approximately 50% confluence, they were washed with PBS and treated with type 2 FIN: RSL3 (also see Supplementary Table 2 for details). After 14 h, medium and cells were collected and prepared for LDH release assay. Images of the treated primary murine tubular cells were obtained using a 20×/0.30 PH1 objective on a Leica DMi1 microscope.

[6] = Stability in human plasma; assay type: in vitro ADME; details: 1 µM, 37 °C
Protocol: Plasma stability is defined as the percentage of parent compound remaining in plasma over the time. Here, incubations were carried out in 5 aliquots of 70 µl each (one for each time point), in duplicates. […] The percentage of the test compounds remaining after incubation in plasma and their half-lives (T1/2) was calculated.

[7] = both, microsomes, 2 µM, pH 7.4
NIH3T3 cells [8] = assay: Ferroptosis inducers (FINs)/ferroptocide, 7-AAD/annexin V flow cytometry; assay type: cell-based, murine; details: NIH3T3, 10 µM FIN56 24 h, alone (DMSO) or with Fer-1 1 µM, Nec-1s 30 µM, Nec-1f 30 µM
Protocol: as §1, §2

SMILES: CC1(CCO)CC2(CCC(C(C)(C)C)CC2)OO1 (stereo not drawn) [FINO2]
- ATP luminescence (CellTiterGlo) (HT1080 cells [1]; HT1080, inducer at 0.01 µM): 100%
- ATP luminescence (CellTiterGlo) (HT1080 cells [1]; HT1080, inducer at 0.1 µM): 100%
- ATP luminescence (CellTiterGlo) (HT1080 cells [1]; HT1080, inducer at 0.5 µM): 100%
- ATP luminescence (CellTiterGlo) (HT1080 cells [1]; HT1080, inducer at 1 µM): 100% and 53.72%
- ATP luminescence (CellTiterGlo) (HT1080 cells [1]; HT1080, inducer at 50 µM): 0.7403% and 0.06%
- ATP luminescence (CellTiterGlo) (HT1080 cells [1]; HT1080, inducer at 100 µM): 0% and 0.26% and 0.2% and 0.08%
- ATP luminescence (CellTiterGlo) (HT1080 cells [1]; HT1080, inducer at 200 µM): 0% and 0.3058% and 0.04%
- LDH release (CD10-135 cells; CD10-135, FINO2 alone (FIN) or with Fer-1, Nec-1s): 73.83 and 38.4304 and 67.2452

SMILES: CCOc1ccccc1-n1c(C(C)N2CCN(C(=O)COc3ccc(Cl)cc3)CC2)nc2ccccc2c1=O (stereo not drawn) [erastin]
- double-negative events (7-AAD/annexin V) (NIH3T3 cells [2]): 10.4% and 3.36% and 6.36% and 2.66%
- ATP luminescence (CellTiterGlo) (HT1080 cells [1]; HT1080, inducer at 0.01 µM): 100%
- ATP luminescence (CellTiterGlo) (HT1080 cells [1]; HT1080, inducer at 0.1 µM): 100%
- ATP luminescence (CellTiterGlo) (HT1080 cells [1]; HT1080, inducer at 0.5 µM): 90.0281% and 100%
- ATP luminescence (CellTiterGlo) (HT1080 cells [1]; HT1080, inducer at 1 µM): 57.4401% and 100%
- ATP luminescence (CellTiterGlo) (HT1080 cells [1]; HT1080, inducer at 100 µM): 3.949%
- ATP luminescence (CellTiterGlo) (HT1080 cells [1]; HT1080, inducer at 200 µM): 12.3673% and 20.98%
- double-negative events (7-AAD/annexin V) ([3]; 5 µM erastin 24 h): 51.9% and 85.2% and 80.4% and 71%
- LDH release (CD10-135 cells; CD10-135, erastin alone (FIN) or with Fer-1, Nec-1s): 92.68 and 85.398 and 91.0128

SMILES: COC(=O)c1ccc([C@@H]2c3[nH]c4ccccc4c3C[C@@H](C(=O)OC)N2C(=O)CCl)cc1 [RSL3]
- double-negative events (7-AAD/annexin V) (HT1080 cells [4]; HT1080, 1.13 µM RSL3 6 h, alone (DMSO) or with Fer-1 1 µM, Nec-1s 30 µM, Nec-1f 30 µM): 61% and 47.8% and 51.8% and 65.7%
- ATP luminescence (CellTiterGlo) (HT1080 cells [1]; HT1080, inducer at 0.01 µM): 100%
- ATP luminescence (CellTiterGlo) (HT1080 cells [1]; HT1080, inducer at 0.1 µM): 100%
- ATP luminescence (CellTiterGlo) (HT1080 cells [1]; HT1080, inducer at 0.113 µM): 100%
- ATP luminescence (CellTiterGlo) (HT1080 cells [1]; HT1080, inducer at 0.5 µM): 30.56% and 28.07% and 28.8%
- ATP luminescence (CellTiterGlo) (HT1080 cells [1]; HT1080, inducer at 1 µM): 18.36% and 19.43% and 14.93%
- ATP luminescence (CellTiterGlo) (HT1080 cells [1]; HT1080, inducer at 1.13 µM): 55.71% and 77.56% and 64%
- ATP luminescence (CellTiterGlo) (HT1080 cells [1]; HT1080, inducer at 5 µM): 11.16% and 17.99% and 22.07%
- LDH release [5]: 91.18% and 51.15% and 48.12% and 50.73% and 54.44%
- LDH release (CD10-135 cells; CD10-135, RSL3 alone (FIN) or with Fer-1, Nec-1s): 53.16 and 45.5353

SMILES: CC(C)[N+](C)(CCOC(=O)C1c2ccccc2Oc2ccccc21)C(C)C [propantheline, reference compound]
- Human plasma stability, parent compound remaining ([6]; 0 min): 100%
- Human plasma stability, parent compound remaining ([6]; 20 min): 65%
- Human plasma stability, parent compound remaining ([6]; 40 min): 31%
- Human plasma stability, parent compound remaining ([6]; 60 min): 16%
- Human plasma stability, parent compound remaining ([6]; 120 min): 2%

SMILES: C[C@@H]1CC[C@@]23C[C@H](O)C(=O)[C@@]2(O)[C@]1(C)[C@H](OC(=O)CCl)C[C@@H](C1=CCn2c(=O)n(-c4ccccc4)c(=O)n2C1)[C@@H]3C [ferroptocide]
- ATP luminescence (CellTiterGlo) (HT1080 cells [1]; HT1080, inducer at 0.01 µM): 100%
- ATP luminescence (CellTiterGlo) (HT1080 cells [1]; HT1080, inducer at 0.1 µM): 100%
- ATP luminescence (CellTiterGlo) (HT1080 cells [1]; HT1080, inducer at 0.5 µM): 67.8646% and 100%
- ATP luminescence (CellTiterGlo) (HT1080 cells [1]; HT1080, inducer at 50 µM): -0.02481% and 0.12%
- ATP luminescence (CellTiterGlo) (HT1080 cells [1]; HT1080, inducer at 100 µM): 0% and 0.4% and -1.103% and 0.1%
- ATP luminescence (CellTiterGlo) (HT1080 cells [1]; HT1080, inducer at 200 µM): 0% and -0.7765% and 0.13%
- LDH release (CD10-135 cells; CD10-135, ferroptocide alone (FIN) or with Fer-1, Nec-1s): 93.9 and 97.7396

SMILES: O=C(O)Cc1ccccc1Nc1c(Cl)cccc1Cl [diclofenac, reference compound]
- Human microsomal stability, parent compound remaining ([7]; 0 h): 100%
- Human microsomal stability, parent compound remaining ([7]; 7 min): 62%
- Human microsomal stability, parent compound remaining ([7]; 0.25 h): 26%
- Human microsomal stability, parent compound remaining ([7]; 25 min): 6%
- Human microsomal stability, parent compound remaining ([7]; 40 min): 2%

SMILES: O=S(=O)(NC1CCCCC1)c1ccc2c(c1)C(=NO)c1cc(S(=O)(=O)NC3CCCCC3)ccc1-2 [FIN56]
- Induction of ferroptosis (HT1080 cells [4]; HT1080): does not effectively drive ferroptosis
- double-negative events (7-AAD/annexin V) (HT1080 cells [4]; HT1080, 10 µM FIN56 24 h, alone (DMSO) or with Fer-1 1 µM, Nec-1s 30 µM, Nec-1f 30 µM): 85.5% and 85.1% and 86%
- double-negative events (7-AAD/annexin V) (HT1080 cells [4]; HT1080, FIN56 10 µM, 24 h): 95% and 96% and 94%
- double-negative events (7-AAD/annexin V) (HT1080 cells [4]; HT1080, FIN56 10 µM, 48 h): 92% and 90% and 74%
- double-negative events (7-AAD/annexin V) (HT1080 cells [4]; HT1080, FIN56 20 µM, 24 h): 92% and 93%
- double-negative events (7-AAD/annexin V) (HT1080 cells [4]; HT1080, FIN56 20 µM, 48 h): 93% and 92% and 89% and 71%
- double-negative events (7-AAD/annexin V) (HT1080 cells [4]; HT1080, FIN56 50 µM, 24 h): 85% and 92% and 93%
- double-negative events (7-AAD/annexin V) (HT1080 cells [4]; HT1080, FIN56 50 µM, 48 h): 83% and 87% and 78% and 65%
- double-negative events (7-AAD/annexin V) (HT1080 cells [4]; HT1080, FIN56 100 µM, 24 h): 85% and 86% and 80%
- ATP luminescence (CellTiterGlo) (HT1080 cells [1]; HT1080, inducer at 0.01 µM): 100%
- ATP luminescence (CellTiterGlo) (HT1080 cells [1]; HT1080, inducer at 0.1 µM): 100%
- ATP luminescence (CellTiterGlo) (HT1080 cells [1]; HT1080, inducer at 0.5 µM): 100%
- ATP luminescence (CellTiterGlo) (HT1080 cells [1]; HT1080, inducer at 1 µM): 100%
- double-negative events (7-AAD/annexin V) ([3]; 10 µM FIN56 24 h): 96.5% and 90.7% and 88.5%
- double-negative events (7-AAD/annexin V) (NIH3T3 cells [8]): 87.6% and 95% and 90.3%
- LDH release (CD10-135 cells; CD10-135, FIN56 alone (FIN) or with Fer-1, Nec-1s): 81.45 and 58.7091 and 60.5407
